Experimental data: paper PMC4770715, “LIM kinase inhibitors disrupt mitotic microtubule organization and impair tumor cell proliferation” (Oncotarget, 2015)

What was measured:
Test in all cases: biochemical
Parameters in all cases: KINOMEscan active-site competition binding, percent of control (100 = no competition)
Conditions in all cases: competition binding, percent control
ABL1-phosphorylated = biological target: T1, ABL1-phosphorylated (Homo sapiens, UniProt P00519)
T1 construct: phosphorylated

AKT1 = AKT1 (Homo sapiens, UniProt P31749)
MEK2 = biological target: T2, MEK2 (Homo sapiens, UniProt P36507)
T2 construct: gene MAP2K2

CDK2 = CDK2 (Homo sapiens, UniProt P24941)
MKK7 = biological target: T3, MKK7 (Homo sapiens, UniProt O14733)
T3 construct: gene MAP2K7

PKMYT1 = PKMYT1 (Homo sapiens, UniProt Q99640)
FLT3(N841I) = FLT3(N841I) (Homo sapiens, UniProt P36888, N841I)
QSK = biological target: T4, QSK (Homo sapiens, UniProt Q9Y2K2)
T4 construct: gene SIK3

PLK2 = PLK2 (Homo sapiens, UniProt Q9NYY3)
PCTK1 = biological target: T5, PCTK1 (Homo sapiens, UniProt Q00536)
T5 construct: gene CDK16

NEK5 = NEK5 (Homo sapiens, UniProt Q6P3R8)
NDR1 = biological target: T6, NDR1 (Homo sapiens, UniProt Q15208)
T6 construct: gene STK38

PIK3CA(C420R) = PIK3CA(C420R) (Homo sapiens, UniProt P42336, C420R)
p38-delta = biological target: T7, p38-delta (Homo sapiens, UniProt O15264)
T7 construct: gene MAPK13

STK35 = STK35 (Homo sapiens, UniProt Q8TDR2)
NEK9 = NEK9 (Homo sapiens, UniProt Q8TD19)
YSK1 = biological target: T8, YSK1 (Homo sapiens, UniProt O00506)
T8 construct: gene STK25

RIOK2 = RIOK2 (Homo sapiens, UniProt Q9BVS4)
ICK = biological target: T9, ICK (Homo sapiens, UniProt Q9UPZ9)
T9 construct: gene CILK1

TIE2 = biological target: T10, TIE2 (Homo sapiens, UniProt Q02763)
T10 construct: gene TEK

MAP3K2 = MAP3K2 (Homo sapiens, UniProt Q9Y2U5)
HCK = HCK (Homo sapiens, UniProt P08631)
TRKB = biological target: T11, TRKB (Homo sapiens, UniProt Q16620)
T11 construct: gene NTRK2

T8 sequence (O00506 whole entry): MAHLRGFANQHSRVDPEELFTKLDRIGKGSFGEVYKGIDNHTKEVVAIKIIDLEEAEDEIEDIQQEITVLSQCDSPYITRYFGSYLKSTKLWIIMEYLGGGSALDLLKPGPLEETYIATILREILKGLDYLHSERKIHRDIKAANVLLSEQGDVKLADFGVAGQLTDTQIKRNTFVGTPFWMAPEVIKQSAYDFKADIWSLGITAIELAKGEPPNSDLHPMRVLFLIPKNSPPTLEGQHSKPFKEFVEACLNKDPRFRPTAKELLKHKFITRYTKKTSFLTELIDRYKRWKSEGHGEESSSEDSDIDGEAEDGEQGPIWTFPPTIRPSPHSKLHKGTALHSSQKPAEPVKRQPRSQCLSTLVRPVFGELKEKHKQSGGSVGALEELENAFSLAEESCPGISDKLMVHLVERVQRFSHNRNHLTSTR
Chain of NEK9 (Q8TD19 whole entry): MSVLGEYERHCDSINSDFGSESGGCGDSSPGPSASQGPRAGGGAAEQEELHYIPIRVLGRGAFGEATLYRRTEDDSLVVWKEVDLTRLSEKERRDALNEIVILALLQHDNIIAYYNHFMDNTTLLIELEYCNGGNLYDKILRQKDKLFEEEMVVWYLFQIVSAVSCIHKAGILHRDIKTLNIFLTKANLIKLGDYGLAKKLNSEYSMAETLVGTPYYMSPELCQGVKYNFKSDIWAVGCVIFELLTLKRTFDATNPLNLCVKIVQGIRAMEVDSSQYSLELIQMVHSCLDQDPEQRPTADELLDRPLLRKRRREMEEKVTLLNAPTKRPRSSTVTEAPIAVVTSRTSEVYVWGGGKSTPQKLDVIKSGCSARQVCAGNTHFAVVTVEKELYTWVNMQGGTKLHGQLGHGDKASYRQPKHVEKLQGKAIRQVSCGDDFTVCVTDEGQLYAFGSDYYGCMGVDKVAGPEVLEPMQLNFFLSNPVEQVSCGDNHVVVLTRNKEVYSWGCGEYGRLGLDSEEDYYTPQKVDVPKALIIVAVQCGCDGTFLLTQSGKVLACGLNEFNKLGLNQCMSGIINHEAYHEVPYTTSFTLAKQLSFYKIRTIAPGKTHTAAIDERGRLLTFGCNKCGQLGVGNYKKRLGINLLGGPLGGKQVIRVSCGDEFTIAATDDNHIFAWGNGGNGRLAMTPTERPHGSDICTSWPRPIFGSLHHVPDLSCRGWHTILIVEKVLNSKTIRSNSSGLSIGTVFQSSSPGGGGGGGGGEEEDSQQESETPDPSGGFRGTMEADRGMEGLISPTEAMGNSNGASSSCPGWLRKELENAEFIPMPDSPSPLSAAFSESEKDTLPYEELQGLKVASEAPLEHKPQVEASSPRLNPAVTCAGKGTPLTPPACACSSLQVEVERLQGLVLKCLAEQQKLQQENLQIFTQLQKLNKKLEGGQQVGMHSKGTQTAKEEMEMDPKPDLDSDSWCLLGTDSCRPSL
Chain of NEK5 (Q6P3R8 whole entry): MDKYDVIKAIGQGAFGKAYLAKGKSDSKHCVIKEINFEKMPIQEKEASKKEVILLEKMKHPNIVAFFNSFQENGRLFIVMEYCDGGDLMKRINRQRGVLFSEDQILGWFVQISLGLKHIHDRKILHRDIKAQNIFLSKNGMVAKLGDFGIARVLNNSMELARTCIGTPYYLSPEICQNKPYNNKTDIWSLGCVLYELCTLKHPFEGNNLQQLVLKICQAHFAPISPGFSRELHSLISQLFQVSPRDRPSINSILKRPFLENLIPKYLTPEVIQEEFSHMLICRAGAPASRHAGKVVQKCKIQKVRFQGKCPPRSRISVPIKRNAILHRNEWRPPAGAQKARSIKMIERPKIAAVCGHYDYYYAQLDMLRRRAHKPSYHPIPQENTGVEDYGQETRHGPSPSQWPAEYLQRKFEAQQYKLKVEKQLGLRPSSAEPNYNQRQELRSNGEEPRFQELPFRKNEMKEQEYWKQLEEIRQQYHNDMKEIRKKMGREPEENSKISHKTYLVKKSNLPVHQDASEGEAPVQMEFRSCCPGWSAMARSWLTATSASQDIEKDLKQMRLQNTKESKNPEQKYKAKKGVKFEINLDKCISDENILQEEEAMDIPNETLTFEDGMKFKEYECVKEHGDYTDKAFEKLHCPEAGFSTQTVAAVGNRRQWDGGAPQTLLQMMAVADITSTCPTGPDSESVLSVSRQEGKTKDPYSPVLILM
Chain of AKT1 (P31749 whole entry): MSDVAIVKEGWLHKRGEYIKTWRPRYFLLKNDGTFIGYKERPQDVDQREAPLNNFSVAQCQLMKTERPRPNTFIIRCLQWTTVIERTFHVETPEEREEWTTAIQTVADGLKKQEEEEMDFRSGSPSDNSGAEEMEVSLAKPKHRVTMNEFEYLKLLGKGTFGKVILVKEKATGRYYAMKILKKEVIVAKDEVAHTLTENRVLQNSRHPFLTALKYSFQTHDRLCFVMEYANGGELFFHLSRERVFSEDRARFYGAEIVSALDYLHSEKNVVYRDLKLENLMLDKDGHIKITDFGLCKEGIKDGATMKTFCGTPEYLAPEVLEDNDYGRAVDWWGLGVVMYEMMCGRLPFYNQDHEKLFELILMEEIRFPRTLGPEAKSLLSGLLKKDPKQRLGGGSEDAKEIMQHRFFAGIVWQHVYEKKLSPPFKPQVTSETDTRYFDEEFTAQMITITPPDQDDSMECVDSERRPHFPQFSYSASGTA
Chain of STK35 (Q8TDR2 whole entry): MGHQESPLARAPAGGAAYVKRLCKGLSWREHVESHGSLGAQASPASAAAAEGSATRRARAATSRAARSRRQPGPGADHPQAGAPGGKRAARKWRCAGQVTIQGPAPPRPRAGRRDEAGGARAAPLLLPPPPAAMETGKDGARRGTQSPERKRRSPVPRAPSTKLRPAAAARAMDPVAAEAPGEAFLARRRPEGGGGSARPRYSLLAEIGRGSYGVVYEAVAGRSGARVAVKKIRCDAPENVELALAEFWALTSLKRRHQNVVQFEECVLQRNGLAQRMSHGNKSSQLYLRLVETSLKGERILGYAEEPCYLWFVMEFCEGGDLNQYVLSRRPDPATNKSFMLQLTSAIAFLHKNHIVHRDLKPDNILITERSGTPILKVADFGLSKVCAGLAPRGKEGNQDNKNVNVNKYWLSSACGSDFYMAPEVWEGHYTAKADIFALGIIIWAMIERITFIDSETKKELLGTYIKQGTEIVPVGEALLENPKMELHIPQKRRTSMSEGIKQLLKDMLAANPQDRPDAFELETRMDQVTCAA
T9 sequence (Q9UPZ9 whole entry): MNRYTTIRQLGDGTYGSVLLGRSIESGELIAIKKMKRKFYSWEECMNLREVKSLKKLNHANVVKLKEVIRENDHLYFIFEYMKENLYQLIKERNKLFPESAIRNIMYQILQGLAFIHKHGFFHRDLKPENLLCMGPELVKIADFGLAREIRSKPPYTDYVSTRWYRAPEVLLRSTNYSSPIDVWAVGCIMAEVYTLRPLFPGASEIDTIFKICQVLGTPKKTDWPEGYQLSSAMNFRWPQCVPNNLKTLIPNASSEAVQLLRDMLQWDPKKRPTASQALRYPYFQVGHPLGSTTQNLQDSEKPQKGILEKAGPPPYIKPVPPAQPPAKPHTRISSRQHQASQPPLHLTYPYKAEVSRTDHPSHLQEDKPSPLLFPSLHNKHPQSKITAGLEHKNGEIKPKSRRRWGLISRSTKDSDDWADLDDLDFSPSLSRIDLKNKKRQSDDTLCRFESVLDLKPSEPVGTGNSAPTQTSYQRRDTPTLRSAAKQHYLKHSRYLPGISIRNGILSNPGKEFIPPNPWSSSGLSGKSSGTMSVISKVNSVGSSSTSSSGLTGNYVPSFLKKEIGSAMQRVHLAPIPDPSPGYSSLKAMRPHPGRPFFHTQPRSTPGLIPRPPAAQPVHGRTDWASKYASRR
T5 sequence (Q00536 whole entry): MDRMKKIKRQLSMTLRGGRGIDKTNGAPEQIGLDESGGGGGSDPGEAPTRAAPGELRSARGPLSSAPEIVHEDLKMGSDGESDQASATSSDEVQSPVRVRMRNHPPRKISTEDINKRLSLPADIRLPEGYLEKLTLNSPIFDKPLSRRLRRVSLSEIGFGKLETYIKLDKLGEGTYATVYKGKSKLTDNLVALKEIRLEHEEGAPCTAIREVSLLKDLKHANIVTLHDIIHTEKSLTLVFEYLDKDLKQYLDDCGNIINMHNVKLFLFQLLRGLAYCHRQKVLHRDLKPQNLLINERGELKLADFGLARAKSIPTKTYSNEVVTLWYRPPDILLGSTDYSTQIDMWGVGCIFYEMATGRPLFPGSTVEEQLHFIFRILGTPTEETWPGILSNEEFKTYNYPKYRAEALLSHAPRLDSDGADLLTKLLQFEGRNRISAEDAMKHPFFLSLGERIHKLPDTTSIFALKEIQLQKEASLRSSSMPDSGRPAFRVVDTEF
Chain of HCK (P08631 whole entry): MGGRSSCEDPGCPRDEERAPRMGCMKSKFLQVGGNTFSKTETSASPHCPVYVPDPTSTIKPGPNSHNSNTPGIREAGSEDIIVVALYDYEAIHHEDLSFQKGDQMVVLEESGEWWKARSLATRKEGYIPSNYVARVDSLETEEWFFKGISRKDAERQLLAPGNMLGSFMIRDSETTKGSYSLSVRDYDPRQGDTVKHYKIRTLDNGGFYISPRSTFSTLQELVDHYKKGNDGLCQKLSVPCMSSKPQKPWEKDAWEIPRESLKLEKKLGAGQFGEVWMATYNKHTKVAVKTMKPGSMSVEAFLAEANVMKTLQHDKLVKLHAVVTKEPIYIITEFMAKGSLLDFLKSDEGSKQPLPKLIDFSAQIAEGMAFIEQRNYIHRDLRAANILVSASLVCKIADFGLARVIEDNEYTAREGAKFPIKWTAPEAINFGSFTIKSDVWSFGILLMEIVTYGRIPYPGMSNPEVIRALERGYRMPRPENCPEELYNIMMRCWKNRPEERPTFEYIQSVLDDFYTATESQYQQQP

Molecule `COc1ccc(-c2cnccc2-c2cnc(NC(=O)C(C)C)s2)c(C(F)(F)F)c1` [CRT0105446, N-{5-[3-(4-Methoxy-2-trifluoromethyl-phenyl)-pyridin-4-yl]-hiazol-2-yl}-isobutyramide] has a remaining binding at 10 µM (ABL1-phosphorylated) of 77%, a remaining binding at 10 µM (AKT1) of 100% and a remaining binding at 10 µM (MEK2) of 92%. The remaining binding at 10 µM (CDK2) was 0.9%, the remaining binding at 10 µM (MKK7) was 97% and the remaining binding at 10 µM (PKMYT1) was 100%. For the same molecule, the remaining binding at 10 µM (FLT3(N841I)) was 22%, the remaining binding at 10 µM (QSK) was 100% and the remaining binding at 10 µM (PLK2) was 99%. For the same molecule, the remaining binding at 10 µM (PCTK1) was 11%, the remaining binding at 10 µM (NEK5) was 99% and the remaining binding at 10 µM (NDR1) was 100%. For the same molecule, the remaining binding at 10 µM (PIK3CA(C420R)) was 100%, the remaining binding at 10 µM (p38-delta) was 97% and the remaining binding at 10 µM (STK35) was 98%. The remaining binding at 10 µM (NEK9) was 92%, the remaining binding at 10 µM (YSK1) was 100% and the remaining binding at 10 µM (RIOK2) was 16%. The remaining binding at 10 µM (ICK) was 18%, the remaining binding at 10 µM (TIE2) was 87% and the remaining binding at 10 µM (MAP3K2) was 82%. It also gave a remaining binding at 10 µM (HCK) of 100% and a remaining binding at 10 µM (TRKB) of 99%.
For `Cc1ccc(-c2cnccc2-c2cnc(Nc3ccc(O)cc3)s2)c(Cl)c1` [CRT0105950, 4-{5-[3-(2-Chloro-4-methyl-phenyl)-pyridin-4-yl]-thiazol-2-ylamino}-phenol], the remaining binding at 10 µM (ABL1-phosphorylated) was 70%, the remaining binding at 10 µM (AKT1) was 100% and the remaining binding at 10 µM (MEK2) was 42%. It also gave a remaining binding at 10 µM (CDK2) of 0.2%, a remaining binding at 10 µM (MKK7) of 38% and a remaining binding at 10 µM (PKMYT1) of 100%. For the same molecule, the remaining binding at 10 µM (FLT3(N841I)) was 0%, the remaining binding at 10 µM (QSK) was 72% and the remaining binding at 10 µM (PLK2) was 9%. The remaining binding at 10 µM (PCTK1) was 63%, the remaining binding at 10 µM (NEK5) was 65% and the remaining binding at 10 µM (NDR1) was 86%. It also gave a remaining binding at 10 µM (PIK3CA(C420R)) of 88%, a remaining binding at 10 µM (p38-delta) of 100% and a remaining binding at 10 µM (STK35) of 100%. It also gave a remaining binding at 10 µM (NEK9) of 96%, a remaining binding at 10 µM (YSK1) of 22% and a remaining binding at 10 µM (RIOK2) of 2%. The remaining binding at 10 µM (ICK) was 19%, the remaining binding at 10 µM (TIE2) was 44% and the remaining binding at 10 µM (MAP3K2) was 15%. The remaining binding at 10 µM (HCK) was 94% and the remaining binding at 10 µM (TRKB) was 6.4%.
